Data on ten compounds can be found in patent US20150284331A1 (priority 2012, published 2015).

One test concerns the target T1, acetylcholinesterase (Rattus norvegicus, UniProt P37136).
T1 construct: Acetylcholinesterase: rat cortex; from tissue; host or cells: rat cortex
T1 sequence (P37136 32-614): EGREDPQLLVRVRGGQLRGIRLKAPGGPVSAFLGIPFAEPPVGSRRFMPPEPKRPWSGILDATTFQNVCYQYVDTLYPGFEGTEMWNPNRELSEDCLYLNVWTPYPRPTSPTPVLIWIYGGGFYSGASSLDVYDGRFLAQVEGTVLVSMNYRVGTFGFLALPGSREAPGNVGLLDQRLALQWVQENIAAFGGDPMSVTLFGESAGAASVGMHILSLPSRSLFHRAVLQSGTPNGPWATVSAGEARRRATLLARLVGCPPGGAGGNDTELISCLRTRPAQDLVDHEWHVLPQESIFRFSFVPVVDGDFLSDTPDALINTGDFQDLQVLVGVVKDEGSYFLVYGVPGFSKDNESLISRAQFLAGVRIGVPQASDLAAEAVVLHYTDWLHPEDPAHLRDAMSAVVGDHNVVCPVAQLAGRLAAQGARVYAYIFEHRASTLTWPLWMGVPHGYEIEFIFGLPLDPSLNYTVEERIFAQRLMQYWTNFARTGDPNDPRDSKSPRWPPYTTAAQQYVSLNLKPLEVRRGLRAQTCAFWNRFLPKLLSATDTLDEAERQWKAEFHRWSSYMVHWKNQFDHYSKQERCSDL
Description: biochemical. The format is biochemical. The settings on record: rat cortex enzyme; for acetylcholinesterase inhibitory activity inhibition ratio (%): final concentration 4×10−5 mol/L; for IC50: read-out: acetylcholinesterase inhibitory activity IC50 (nmol). The method, then:
(§1) Sample processing: All samples were formulated as 10-2 mol/L solution by using 100% DMSO. 10-2 mol/L solution was used in microdetermination. 1 μL was taken to use in single tube experiment.
(§2) Solvent control: 0.4% DMSO was used in microdetermination. The inhibition ratio of the sample was obtained wherein the effect of solvent was deducted.
Acetylcholinesterase: rat cortex

A further test concerns the target T2, butyrylcholinesterase (Rattus norvegicus, UniProt Q9JKC1).
T2 construct: Butyrylcholinesterase: rat serum; from tissue; host or cells: rat serum
As to the kind of experiment: inhibition of butyrylcholinesterase (rat serum). It counts as biochemical. The settings on record: rat serum enzyme; final concentration 4×10−5 mol/L. The method, then:
as §1, §2
Butyrylcholinesterase: rat serum

Molecules are shown by their SMILES.

A word on the IC50: it is the concentration at which inhibition is half-maximal.

T2 sequence (Q9JKC1 24-597): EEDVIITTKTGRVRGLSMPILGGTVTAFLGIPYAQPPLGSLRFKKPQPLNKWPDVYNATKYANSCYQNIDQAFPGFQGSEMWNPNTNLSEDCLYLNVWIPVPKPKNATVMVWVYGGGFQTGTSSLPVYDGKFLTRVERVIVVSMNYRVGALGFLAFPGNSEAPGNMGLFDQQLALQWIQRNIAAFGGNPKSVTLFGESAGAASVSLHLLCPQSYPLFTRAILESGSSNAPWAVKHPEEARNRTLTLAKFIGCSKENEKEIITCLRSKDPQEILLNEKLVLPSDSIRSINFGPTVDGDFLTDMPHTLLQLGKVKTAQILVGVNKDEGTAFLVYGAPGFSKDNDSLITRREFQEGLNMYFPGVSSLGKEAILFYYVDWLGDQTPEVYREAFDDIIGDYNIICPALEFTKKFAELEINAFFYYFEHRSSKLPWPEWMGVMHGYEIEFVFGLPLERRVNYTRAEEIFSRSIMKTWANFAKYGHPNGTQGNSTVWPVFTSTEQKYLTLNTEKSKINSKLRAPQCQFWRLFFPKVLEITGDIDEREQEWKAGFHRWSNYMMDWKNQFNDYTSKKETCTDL

With `COC(=O)c1ccc(CN2C3CCC2CC(F)(CC2Cc4cc(OC)c(OC)cc4C2=O)C3)cc1` (centres unmarked) [DC50, methyl 4-((3-((5,6-dimethoxy-1-oxo-2,3-dihydro-1H-inden-2-yl)methyl)-3-fluoro-8-azabicyclo[3.2.1]octan-8-yl)methyl)benzoate], on acetylcholinesterase, the “acetylcholinesterase inhibitory activity inhibition ratio (%)” value turned out to be 83.75%. Besides, the “butyrylcholinesterase inhibitory activity inhibition ratio (%)” value on butyrylcholinesterase worked out at 0.00%.

As for `COc1cc2c(cc1OC)C(=O)C(CC1(F)CCN(Cc3ccccc3C#N)CC1)C2.Cl` (centres unmarked) [DC37, 2-((4-((5,6-dimethoxy-1-oxo-2,3-dihydro-1H-inden-2-yl)methyl)-4-fluoropiperidin-1-yl)methyl)benzonitrile hydrochloride], the “acetylcholinesterase inhibitory activity inhibition ratio (%)” value on acetylcholinesterase was 81.98%. Moreover, the “butyrylcholinesterase inhibitory activity inhibition ratio (%)” value on butyrylcholinesterase stood at 20.80%.

For `COc1cc2c(cc1OC)C(=O)C(CC1(F)CC3CCC(C1)N3Cc1ccc(F)cc1)C2` (centres unmarked) [DC45, 2-((3-fluoro-8-(4-fluorobenzyl)-8-azabicyclo[3.2.1]octan-3-yl)methyl)-5,6-dimethoxy-2,3-dihydro-1H-inden-1-one], on acetylcholinesterase, the “acetylcholinesterase inhibitory activity inhibition ratio (%)” value was determined as 97.19%. Besides, the “butyrylcholinesterase inhibitory activity inhibition ratio (%)” value at butyrylcholinesterase came out at 82.56%.

Turning to `COc1cc2c(cc1OC)C(=O)C(CC1(F)CC3CCC(C1)N3Cc1cc(F)cc(F)c1F)C2` (centres unmarked) [DC75, 2-((3-fluoro-8-(2,3,5-trifluorobenzyl)-8-azabicyclo[3.2.1]octan-3-yl)methyl)-5,6-dimethoxy-2,3-dihydro-1H-inden-1-one], the “acetylcholinesterase inhibitory activity inhibition ratio (%)” value on acetylcholinesterase is 72.53%. Besides, on butyrylcholinesterase, the “butyrylcholinesterase inhibitory activity inhibition ratio (%)” value came out at 13.53%.

In the case of `COc1cc2c(cc1OC)C(=O)C(CC1(F)CCN(CCc3ccccc3F)CC1)C2` (centres unmarked) [DC111, 2-((4-fluoro-1-(2-fluorophenethyl)piperidin-4-yl)methyl)-5,6-dimethoxy-2,3-dihydro-1H-inden-1-one], at acetylcholinesterase, the “acetylcholinesterase inhibitory activity inhibition ratio (%)” value was 92.44% and the IC50 came to 1.96 nM. Further, the “butyrylcholinesterase inhibitory activity inhibition ratio (%)” value on butyrylcholinesterase is given as 71.58%.

`COc1cc2c(cc1OC)C(=O)C(CC1(F)CCN(Cc3cccc(F)c3)CC1)C2` (centres unmarked) [DC21, 2-((4-fluoro-1-(3-fluorobenzyl)piperidin-4-yl)methyl)-5,6-dimethoxy-2,3-dihydro-1H-inden-1-one]: the “acetylcholinesterase inhibitory activity inhibition ratio (%)” value at acetylcholinesterase is 82.24%. In addition, on butyrylcholinesterase, the “butyrylcholinesterase inhibitory activity inhibition ratio (%)” value was 75.02%.

Turning to `COc1cc2c(cc1OC)C(=O)C(CC1(F)CCN(Cc3cccc(C#N)c3)CC1)C2` (centres unmarked) [DC13, 3-((4-((5,6-dimethoxy-1-oxo-2,3-dihydro-1H-inden-2-yl)methyl)-4-fluoropiperidin-1-yl)methyl)benzonitrile], the “acetylcholinesterase inhibitory activity inhibition ratio (%)” value on acetylcholinesterase is reported as 97.19%. The “butyrylcholinesterase inhibitory activity inhibition ratio (%)” value at butyrylcholinesterase is recorded as 29.25%.

For `O=C1c2cc(OCC(F)(F)F)c(OCC(F)(F)F)cc2CC1CC1(F)CCN(Cc2ccccc2F)CC1` (centres unmarked) [DC103, 2-((4-fluoro-1-(2-fluorobenzyl)piperidin-4-yl)methyl)-5,6-bis(2,2,2-trifluoroethoxy)-2,3-dihydro-1H-inden-1-one], at acetylcholinesterase, the “acetylcholinesterase inhibitory activity inhibition ratio (%)” value stood at 92.04% and the IC50 is 0.86 nM. Besides, on butyrylcholinesterase, the “butyrylcholinesterase inhibitory activity inhibition ratio (%)” value is 70.0%.

As to `COc1cc2c(cc1OC)C(=O)C(CC1(F)CCN(Cc3cc(C)cc(C)c3)CC1)C2` (centres unmarked) [DC4, 2-((1-(3,5-dimethylbenzyl)-4-fluoropiperidin-4-yl)methyl)-5,6-dimethoxy-2,3-dihydro-1H-inden-1-one], the “acetylcholinesterase inhibitory activity inhibition ratio (%)” value on acetylcholinesterase came out at 75.65%. Further, the “butyrylcholinesterase inhibitory activity inhibition ratio (%)” value at butyrylcholinesterase came to 72.82%.

On to `COc1cc2c(cc1OC)C(=O)C(CC1(F)CCN(Cc3ccc([N+](=O)[O-])cc3)CC1)C2` (centres unmarked) [DC1, 2-((4-fluoro-1-(4-nitrobenzyl)piperidin-4-yl)methyl)-5,6-dimethoxy-2,3-dihydro-1H-inden-1-one], for which, on acetylcholinesterase, the “acetylcholinesterase inhibitory activity inhibition ratio (%)” value is given as 72.85% and the IC50 was found to be 8780 nM. For the same compound, the “butyrylcholinesterase inhibitory activity inhibition ratio (%)” value at butyrylcholinesterase was 46.68%.
